{"source": "patent US20250280826A1", "about": "“PLANT GROWTH PROMOTER” (KAO CORPORATION, priority 2022, published 2025)", "test_system": "soybean", "experiment": "Example 2: soybean nodule weight one week after foliar spray", "type": "in vivo", "experimental": "Medium-term fertilizer effect type culture soil (Takii hydrous cell medium-term fertilizer effect type, Takii & Co., Ltd.) and vermiculite grains (Akagi-Engei Co., Ltd.) were mixed at a volume ratio of 1:1, and the soil was placed in a polypot (diameter: 10.5 cm, height: 9 cm). The soybean seeds used were “Enrei” (purchased from Nikko Seed Co. Ltd.). After tap water was supplied in an amount of 250 mL per pot, 2 seeds per pot were each sown at a depth of from about 1 to 2 cm from the soil surface. The number of repeats in each test plot was 6 (n=6).\n1.5% agar (Wako Pure Chemical Industries, Ltd.) was added to Yeast-Mannitol (YM) medium (0.5 g of K2HPO4, 0.2 g of MgSO4-7H2O, 0.1 g of NaCl, 0.4 g of yeast extract, 10 g of mannitol, and 1 L of distilled water (pH: 6.8)) to prepare a solid medium, and a soybean Rhizobium (Bradyrhizobium japonicum) NBRC14783T strain was grown on the solid medium. A platinum loop of the grown Rhizobium was taken and inoculated in 50 mL of YM liquid medium in a Sakaguchi flask with a volume of 500 mL, and shake-cultured at 30° C. for about 36 hours. A Rhizobium culture solution whose value of turbidity OD600 of bacterial cells was about 0.3 was prepared. […]\nThe mean and the standard deviation were calculated from the data of four repeats, excluding the highest and the lowest values from the six repeats in each test plot."}
{"smiles": "O=C1O[C@H]([C@@H](O)CO)C(O)=C1O", "note": "[ascorbic acid, (R)-3,4-dihydroxy-5-((S)-1,2-dihydroxyethyl)furan-2(5H)-one]", "values": [{"measurement": "nodule weight", "setting": "ascorbic acid 1,500 ppm dissolved in deionized water, soybean early growth stage", "value": "increased"}, {"measurement": "application effect of ascorbic acid (nodule weight)", "setting": "ascorbic acid 1,500 ppm dissolved in tap water", "value": "tended to decrease"}]}
